In US10034886B2, “GLP-1 receptor modulators” (Celgene International II SÀRL, priority 2014, dated 2018):
Like-named read-outs stand apart in the source and are kept apart here.

Biological target: T1, GLP-1R (Homo sapiens, UniProt P43220)
T1 construct: host or cells: GLP-1R CRE-bla CHO-K1 cells
Experiment: EC20 GLP-1(9-36) PAM cAMP assay: dose response of compound in the presence of fixed concentration of GLP-1(9-36)
Type: cell-based
Settings: GLP-1R CRE-bla CHO-K1 cells, read-out: EC20 GLP-1(9-36) PAM EC50
In short: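 Positive allosteric modulation read as cAMP accumulation: compound titrations (12 points) combined with an EC20 level of GLP-1(9-36) on CHO-K1 GLP-1R CRE-bla cells, IBMX present, 30 min, 37 °C, pH 7.4 buffer. Luminescence converted to cAMP via standards; non-linear fit gave EC50 and Emax.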

[1] = dose response of compound in presence of fixed concentration of GLP-1(9-36)
[2] = compound dose response with fixed concentration of GLP-1(9-36)

T1 sequence (P43220 24-463): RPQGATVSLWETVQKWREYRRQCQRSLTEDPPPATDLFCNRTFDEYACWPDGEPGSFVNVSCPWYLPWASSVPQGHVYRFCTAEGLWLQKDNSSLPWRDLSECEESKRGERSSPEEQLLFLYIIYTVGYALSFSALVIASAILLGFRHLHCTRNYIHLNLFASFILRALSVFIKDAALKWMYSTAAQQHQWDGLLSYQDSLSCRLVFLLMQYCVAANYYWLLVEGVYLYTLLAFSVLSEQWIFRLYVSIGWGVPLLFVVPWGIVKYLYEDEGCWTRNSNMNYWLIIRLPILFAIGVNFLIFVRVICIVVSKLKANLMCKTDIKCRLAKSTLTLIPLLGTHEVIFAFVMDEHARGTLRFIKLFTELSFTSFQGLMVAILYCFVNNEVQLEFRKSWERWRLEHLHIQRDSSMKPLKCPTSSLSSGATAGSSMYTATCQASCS
T1 sequence (P01275 100-127 partner limits assumed): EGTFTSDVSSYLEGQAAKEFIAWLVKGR

Row | SMILES | EC50 [1] | EC50 [2]
1 | CCCCCCCOc1ccc(-c2cnc(-c3ccc(C[C@H](NC(=O)c4ccc(C(C)(C)C)s4)C(=O)N[C@@H](C(=O)O)[C@H](C)c4ccccc4)cc3)nc2)cc1 [Compound 910] | 0.8 to 2.5 µM | –
2 | COc1ccc(-c2ccc(-c3cnc(-c4ccc(C[C@H](NC(=O)c5ccc(C(C)(C)C)s5)C(=O)N5CC(C(=O)O)C5)cc4)nc3)c(F)c2)cc1 [Compound 1329] | – | < 0.8 µM
3 | CCC[C@H]1CC[C@H](C2CCN(c3cnc(-c4ccc(C[C@H](NC(=O)c5ccc(C(C)C)cc5)C(=O)N5CC(C(=O)O)C5)cc4)nc3)CC2)CC1 [Compound 1536] | – | < 0.8 µM
4 | CCCCCCCOc1ccc(-c2cnc(-c3ccc(C[C@H](NC(=O)c4ccc(C(C)(C)C)s4)C(=O)NCC(C)O)cc3)nc2)cc1 (some centres unmarked) [Compound 388] | 2.5 to 5 µM | –
5 | CC[C@H]1CC[C@H](c2ccc(-c3cnc(-c4ccc(C[C@H](NC(=O)c5ccc(C(C)(C)C#N)s5)C(=O)N5CC(C(=O)O)C5)cc4)nc3)cc2)CC1 [Compound 1339] | – | < 0.8 µM
6 | CC(C)(C)c1ccc(C(=O)N[C@@H](Cc2ccc(-c3ncc(-c4ccc([C@H]5CC[C@H](C(F)(F)F)CC5)cc4)cn3)cc2)C(=O)N2CC(C(=O)O)C2)s1 [Compound 1184] | < 0.8 µM | –
7 | CC[C@H]1CC[C@H](c2ccc(-c3cnc(-c4ccc(C[C@H](NC(=O)c5ccc(C(C)(C)C)s5)C(=O)O)cc4)nn3)cc2)CC1 [Compound 1336, (S)-2-(5-(tert-butyl)thiophene-2-carboxamido)-3-(4-(6-(4-((1r,4r)-4-ethylcyclohexyl)phenyl)-1,2,4-triazin-3-yl)phenyl)propanoic acid] | – | 2.5 to 5 µM
8 | CCCCCCCOc1ccc(-c2cnc(-c3ccc(C[C@H](NC(=O)c4ccc(C(C)(C)C)cc4)C(=O)NCCC(=O)O)cc3)nc2)cc1OC [Compound 699] | 5 to 10 µM | –
9 | CC(C)(C)c1ccc(C(=O)N[C@@H](Cc2ccc(-c3ncc(-c4ccc(-c5ccccc5OC(F)(F)F)cc4F)cn3)cc2)C(=O)N2CC(C(=O)O)C2)s1 [Compound 1224] | – | < 0.8 µM
10 | CCC(C)(C)c1ccc(C(=O)N[C@@H](Cc2ccc(-c3ncc(-c4ccc([C@H]5CC[C@H](CC)CC5)cc4)cn3)cc2)C(=O)N2CC(C(=O)O)C2)cc1 [Compound 1157] | < 0.8 µM | –
11 | CCCCCCCOc1ccc(-c2cnc(-c3ccc(C[C@H](NC(=O)c4ccc(C(C)(C)C)s4)C(=O)N[C@H]4C[C@@H](C(=O)O)C4)cc3)nc2)cc1 [Compound 872] | 0.8 to 2.5 µM | –
12 | CCCCCCc1noc(-c2ccc(-c3cnc(-c4ccc(C[C@H](NC(=O)c5ccc(C(C)(C)C)cc5)C(=O)NCCC(=O)O)cc4)nc3)cc2)n1 [Compound 756] | 5 to 10 µM | –
13 | CCc1ccc(C(=O)N[C@@H](Cc2ccc(-c3ncc(-c4ccc([C@H]5CC[C@H](CC)CC5)cc4)cn3)cc2)C(=O)O)cc1 [Compound 1370] | – | 0.8 to 2.5 µM
14 | CCCCCCCOc1ccc(-c2cnc(-c3ccc(C[C@H](NC(=O)c4ccc(C(C)(C)C)s4)C(=O)N4CC(N(C)C)C4)cc3)nc2)cc1 [Compound 976] | 2.5 to 5 µM | –
15 | CCCCCCCOc1ccc(-c2cnc(-c3ccc(C[C@H](NC(=O)c4ccc(C(C)(C)C)s4)C(=O)NS(=O)(=O)CC(=O)OC)cc3)nc2)cc1 [Compound 422, methyl (S)-2-(N-(2-(5-(tert-butyl)thiophene-2-carboxamido)-3-(4-(5-(4-(heptyloxy)phenyl)pyrimidin-2-yl)phenyl)propanoyl)sulfamoyl)acetate] | < 0.8 µM | –
16 | CC[C@H]1CC[C@H](c2ccc(-c3cnc(-c4ccc(C[C@H](NC(=O)c5ccc(CC(C)C)cc5)C(=O)O)cc4)nc3)cc2)CC1 [Compound 1383] | – | 0.8 to 2.5 µM
17 | CC(C)(C)c1ccc(C(=O)N[C@@H](Cc2ccc(-c3ncc(-c4ccc(C#Cc5ccccc5)cc4)cn3)cc2)C(=O)NCCC(=O)O)cc1 [Compound 689] | 2.5 to 5 µM | –
18 | C[C@@H](NC(=O)[C@H](Cc1ccc(-c2ncc(-c3ccc4c(C5CCCCO5)c(O)ccc4c3)cn2)cc1)NC(=O)c1ccc(C(C)(C)C)s1)C(=O)O (some centres unmarked) [Compound 1031] | 2.5 to 5 µM | –
19 | CCCc1ccc(-c2ccc(-c3cnc(-c4ccc(C[C@H](NC(=O)c5ccc(C(C)(C)C)cc5)C(=O)N5CC(C(=O)O)C5)cc4)nc3)c(F)c2)cc1 [Compound 1399] | – | < 0.8 µM
20 | CC[C@H]1CC[C@H](c2ccc(-c3cnc(-c4ccc(C[C@H](NC(=O)c5ccc(CC(C)C)s5)C(=O)O)cc4)nc3)cc2)CC1 [Compound 1381] | – | 5 to 10 µM
21 | CCCCCCCOc1ccc(-c2cnc(-c3ccc(C[C@H](NC(=O)c4ccc(C(C)(C)C)s4)C(=O)N4CCNCC4C(=O)O)cc3)nc2)cc1 (some centres unmarked) [Compound 891] | 0.8 to 2.5 µM | –
22 | CC[C@H]1CC[C@H](c2ccc(-c3cnc(-c4ccc(C[C@H](NC(=O)c5ccc(OC(C)C)cc5)C(=O)O)cc4)nc3)cc2)CC1 [Compound 1382] | – | 0.8 to 2.5 µM
23 | CCCCCCCOc1ccc(-c2cnc(-c3ccc(C[C@H](NC(=O)c4ccc(C(C)(C)C)cc4)C(=O)N[C@@H](CC(=O)NS(C)(=O)=O)C(=O)O)cc3)nc2)cc1 [Compound 511] | 0.8 to 2.5 µM | –
24 | CCCCCCCCc1noc(-c2cnc(-c3ccc(C[C@H](NC(=O)c4ccc(C(C)(C)C)cc4)C(=O)NCCC(=O)O)cc3)nc2)n1 [Compound 755] | 2.5 to 5 µM | –

Row | SMILES | EC50 [1] | EC50 [2]
25 | CCCCCCCCOc1ccc(-c2cnc(-c3ccc(C[C@H](NC(=O)c4ccc(C(C)(C)C)s4)C(=O)NC(C(=O)O)C(O)c4ccccc4)cc3)nc2)cc1 (some centres unmarked) [Compound 926] | 0.8 to 2.5 µM | –
26 | CCCCCCCOc1ccc(-c2cnc(-c3ccc(C[C@H](NC(=O)c4ccc(C(C)(C)C)cc4)C(=O)N4C[C@H](O)C[C@@H]4C(=O)O)cc3)nc2)cc1 [Compound 585] | 0.8 to 2.5 µM | –
27 | CCCCCCCOc1ccc(-c2cnc(-c3ccc(C[C@H](NC(=O)c4ccc(C(C)(C)C)s4)C(=O)N4CCCN(C)CC4)cc3)nc2)cc1 [Compound 963] | 5 to 10 µM | –
28 | CCOc1ccc(C(=O)N[C@@H](Cc2ccc(-c3ncc(-c4ccc(OCCCC(C)C)cc4)cn3)cc2)C(=O)N2CC(C(=O)O)C2)cc1 [Compound 1230] | – | 0.8 to 2.5 µM
29 | CCCCCCCOc1ccc(-c2cnc(-c3ccc(C[C@H](NC(=O)c4ccc(C(C)(C)C)cc4)C(=O)N4C[C@@H](O)C[C@@H]4C(=O)O)cc3)nc2)cc1 [Compound 586] | < 0.8 µM | –
30 | CCC[C@H]1CC[C@H](C2CCN(c3cnc(-c4ccc(C[C@H](NC(=O)c5ccc(C(C)(C)C)s5)C(=O)N5CC(c6nn[nH]n6)C5)cc4)nc3)CC2)CC1 [Compound 1442] | – | < 0.8 µM
31 | CCCCCCCOc1ccc(-c2cnc(-c3ccc(C[C@H](NC(=O)c4ccc(C(C)(C)C)s4)C(=O)N4CCC[C@H]4C(=O)NCCC(=O)O)cc3)nc2)cc1 [Compound 494] | < 0.8 µM | –
32 | CCCCCCCOc1ccc(-c2cnc(-c3ccc(C[C@H](NC(=O)Cc4ccc(OCCCC)cc4)C(=O)N4CC[C@H](C(=O)O)C4)cc3)nc2)cc1 [Compound 1095] | 2.5 to 5 µM | –
33 | CCCCCCCOc1ccc(-c2cnc(-c3ccc(C[C@H](NC(=O)c4ccc(C(C)(C)C)s4)C(=O)N4CCC4C(=O)O)cc3)nc2)cc1 (some centres unmarked) [Compound 599] | < 0.8 µM | –
34 | Cc1ccc(-c2ccc(-c3cnc(-c4ccc(C[C@H](NC(=O)c5ccc(C(C)(C)C)s5)C(=O)N[C@H](C)C(=O)O)cc4)nc3)cc2)cc1C [Compound 1138] | < 0.8 µM | –
35 | CC(C)Oc1cc(-c2cnc(-c3ccc(C[C@H](NC(=O)c4ccc(C(C)(C)C)s4)C(=O)N[C@H](C)C(=O)O)cc3)nc2)ccc1OC(F)(F)F [Compound 1013] | 5 to 10 µM | –
36 | CCCCCCCOc1ccc(-c2cnc(-c3ccc(C[C@H](NC(=O)c4ccc(C(C)(C)C)s4)C(=O)NC(C(=O)O)C(O)c4ccc(Cl)c(Cl)c4)cc3)nc2)cc1 (some centres unmarked) [Compound 905] | 5 to 10 µM | –
37 | CCCCCCCOc1ccc(-c2cnc(-c3ccc(C[C@H](NC(=O)c4ccc(C(C)(C)C)s4)C(=O)N4CC(C(=O)O)C(C)(C)C4)cc3)nc2)cc1 (some centres unmarked) [Compound 638] | 2.5 to 5 µM | –
38 | Cc1ccc(C2CCN(c3cnc(-c4ccc(C[C@H](NC(=O)c5ccc(C(C)(C)C)s5)C(=O)N5CC(C(=O)O)C5)cc4)nc3)CC2)cc1 [Compound 1430] | – | < 0.8 µM
39 | CC(C)COc1ccc(-c2cnc(-c3ccc(C[C@H](NC(=O)c4ccc(C(C)(C)C)cc4)C(=O)NCCC(=O)O)cc3)nc2)cc1 [Compound 685] | 2.5 to 5 µM | –
40 | CCCCCCCOc1ccc(-c2cnc(-c3ccc(C[C@H](NC(=O)c4ccc(C(C)(C)C)cc4)C(=O)N[C@@H](CC(=O)NC)C(=O)O)cc3)nc2)cc1 [Compound 477, N^2—((S)-2-(4-(tert-butyl)benzamido)-3-(4-(5-(4-(heptyloxy)phenyl)pyrimidin-2-yl)phenyl)propanoyl)-N^4-methyl-L-asparagine] | < 0.8 µM | –
41 | Cc1cc(-c2ccc(-c3cnc(-c4ccc(C[C@H](NC(=O)c5ccc(C(C)(C)C)s5)C(=O)N5CC(C(=O)O)C5)cc4)nc3)c(F)c2)ccc1Cl [Compound 1199] | < 0.8 µM | –
42 | C[C@@H](NC(=O)[C@H](Cc1ccc(-c2ncc(-c3ccc(-c4ccc(OC(F)(F)F)cc4F)cc3)cn2)cc1)NC(=O)c1ccc(C(C)(C)C)s1)C(=O)O [Compound 1146] | < 0.8 µM | –
43 | Cc1cccc(C2CCN(c3cnc(-c4ccc(C[C@H](NC(=O)c5ccc(C(C)(C)C)s5)C(=O)N5CC(C(=O)O)C5)cc4)nc3)CC2)c1 [Compound 1476] | – | < 0.8 µM
44 | CCCCCCCOc1ccc(-c2cnc(-c3ccc(C[C@H](NC(=O)c4ccn(C(C)(C)C)c4)C(=O)N4CC[C@H](C(=O)O)C4)cc3)nc2)cc1 [Compound 1094] | < 0.8 µM | –
45 | CCC[C@H]1CC[C@H](C2CCN(c3cnc(-c4ccc(C[C@H](NC(=O)c5ccc(C(C)(C)C#N)cc5)C(=O)N5CC(C(=O)O)C5)cc4)nc3)CC2)CC1 [Compound 1526] | – | < 0.8 µM
46 | CCCCCCCOc1ccc2cc(-c3ccc(C[C@H](NC(=O)c4ccc(C(C)(C)C)cc4)C(=O)N[C@H](C)C(=O)O)cc3)ncc2c1 [Compound 808] | 2.5 to 5 µM | –
47 | CC[C@H]1CC[C@H](c2ccc(-c3cnc(-c4ccc(C[C@H](NC(=O)c5ccc(C(C)(C)C)s5)C(=O)N5CC[C@H](C(=O)O)C5)cc4)nc3)cc2)CC1 [Compound 1137] | < 0.8 µM | –
